Activity calls are given as the source filed them. The calls are words filed in the database; no cut-off is given here.
Experiments:
HEL = experiment: Cytotoxicity against human HEL cells assessed as reduction in cell viability after 48 hrs by MTT assay; type: functional, cell-based; conditions: Homo sapiens, HEL, 48 h
K562 = experiment: Cytotoxicity against human K562 cells assessed as reduction in cell viability after 48 hrs by MTT assay; type: functional, cell-based; conditions: Homo sapiens, K562, 48 h
MDA-MB-231 = experiment: Cytotoxicity against human MDA-MB-231 cells assessed as reduction in cell viability after 48 hrs by MTT assay; type: functional, cell-based; conditions: Homo sapiens, MDA-MB-231, 48 h
PC-3 [1] = experiment: Cytotoxicity against human PC3 cells assessed as reduction in cell viability after 48 hrs by MTT assay; type: functional, cell-based; conditions: Homo sapiens, PC-3, 48 h
[2] = Cytotoxicity against human WM9 cells assessed as reduction in cell viability after 48 hrs by MTT assay; type: functional, cell-based; conditions: Homo sapiens, WM9, 48 h
PC-3 [3] = experiment: Potency index, ratio of cisplatin IC50 to compound IC50 for human PC3 cells; type: functional
PC-3 [4] = experiment: Potency index, ratio of 5-fluorouracil IC50 to compound IC50 for human PC3 cells; type: functional
PC-3 [5] = experiment: Induction of apoptosis in human PC3 cells assessed as viable cells at 3 uM after 24 hrs by Annexin V-FITC/propidium iodide double staining based flow cytometry (reference value: 97.9%); type: functional; conditions: PC-3, 24 h, read-out: Activity
PC-3 [6] = experiment: Induction of apoptosis in human PC3 cells assessed as early apoptotic cells at 3 uM after 24 hrs by Annexin V-FITC/propidium iodide double staining based flow cytometry (reference value: 0.8%); type: functional
PC-3 [7] = experiment: Induction of apoptosis in human PC3 cells assessed as late apoptotic cells at 3 uM after 24 hrs by Annexin V-FITC/propidium iodide double staining based flow cytometry (reference value: 0.4%); type: functional
PC-3 [8] = experiment: Induction of apoptosis in human PC3 cells assessed as necrotic cells at 3 uM after 24 hrs by Annexin V-FITC/propidium iodide double staining based flow cytometry (reference value: 0.9%); type: functional
PC-3 [9] = experiment: Induction of apoptosis in human PC3 cells assessed as viable cells at 2 uM after 24 hrs by Annexin V-FITC/propidium iodide double staining based flow cytometry (reference value: 97.9%); type: functional; conditions: PC-3, 24 h, read-out: Activity
PC-3 [10] = experiment: Induction of apoptosis in human PC3 cells assessed as early apoptotic cells at 2 uM after 24 hrs by Annexin V-FITC/propidium iodide double staining based flow cytometry (reference value: 0.8%); type: functional
PC-3 [11] = experiment: Induction of apoptosis in human PC3 cells assessed as late apoptotic cells at 2 uM after 24 hrs by Annexin V-FITC/propidium iodide double staining based flow cytometry (reference value: 0.4%); type: functional
PC-3 [12] = experiment: Induction of apoptosis in human PC3 cells assessed as necrotic cells at 2 uM after 24 hrs by Annexin V-FITC/propidium iodide double staining based flow cytometry (reference value: 0.9%); type: functional
PC-3 [13] = experiment: Induction of apoptosis in human PC3 cells assessed as viable cells at 1 uM after 24 hrs by Annexin V-FITC/propidium iodide double staining based flow cytometry (reference value: 97.9%); type: functional; conditions: PC-3, 24 h, read-out: Activity
PC-3 [14] = experiment: Induction of apoptosis in human PC3 cells assessed as early apoptotic cells at 1 uM after 24 hrs by Annexin V-FITC/propidium iodide double staining based flow cytometry (reference value: 0.8%); type: functional
PC-3 [15] = experiment: Induction of apoptosis in human PC3 cells assessed as late apoptotic cells at 1 uM after 24 hrs by Annexin V-FITC/propidium iodide double staining based flow cytometry (reference value: 0.4%); type: functional
PC-3 [16] = experiment: Induction of apoptosis in human PC3 cells assessed as necrotic cells at 1 uM after 24 hrs by Annexin V-FITC/propidium iodide double staining based flow cytometry (reference value: 0.9%); type: functional
PC-3 [17] = experiment: Induction of apoptosis in human PC3 cells assessed as viable cells at 0.5 uM after 24 hrs by Annexin V-FITC/propidium iodide double staining based flow cytometry (reference value: 97.9%); type: functional; conditions: PC-3, 24 h, read-out: Activity
PC-3 [18] = experiment: Induction of apoptosis in human PC3 cells assessed as early apoptotic cells at 0.5 uM after 24 hrs by Annexin V-FITC/propidium iodide double staining based flow cytometry (reference value: 0.8%); type: functional
PC-3 [19] = experiment: Induction of apoptosis in human PC3 cells assessed as late apoptotic cells at 0.5 uM after 24 hrs by Annexin V-FITC/propidium iodide double staining based flow cytometry (reference value: 0.4%); type: functional
PC-3 [20] = experiment: Induction of apoptosis in human PC3 cells assessed as necrotic cells at 0.5 uM after 24 hrs by Annexin V-FITC/propidium iodide double staining based flow cytometry (reference value: 0.9%); type: functional
PC-3 [21] = experiment: Induction of apoptosis in human PC3 cells assessed as decrease in cell membrane smoothness at 2.5 uM after 24 hrs by inverted microscopic analysis; type: functional, cell-based
PC-3 [22] = experiment: Induction of apoptosis in human PC3 cells assessed as shrunken nucleus at 2.5 uM after 24 hrs by inverted microscopic analysis; type: functional, cell-based
PC-3 [23] = experiment: Induction of apoptosis in human PC3 cells assessed as cell shrinkage at 2.5 uM after 24 hrs by Hoechst 33258 staining based inverted microscopic analysis; type: functional
PC-3 [24] = experiment: Induction of apoptosis in human PC3 cells assessed as chromatin condensation at 2.5 uM after 24 hrs by Hoechst 33258-based inverted fluorescence microscopy; type: functional, cell-based
PC-3 [25] = experiment: Induction of apoptosis in human PC3 cells assessed as formation of apoptotic bodies at 2.5 uM after 24 hrs by 33258-based inverted fluorescence microscopy; type: functional, cell-based
PC-3 [26] = experiment: Induction of apoptosis in human PC3 cells after 24 hrs by Annexin V-FITC/propidium iodide double staining based flow cytometry; type: functional, cell-based
PC-3 [27] = experiment: Induction of apoptosis in human PC3 cells assessed as activation of BAX at 2.5 uM after 24 hrs by Western blot analysis; type: functional, cell-based
PC-3 [28] = experiment: Induction of apoptosis in human PC3 cells assessed as suppression of bcl2 at 2.5 uM after 24 hrs by Western blot analysis; type: functional, cell-based
PC-3 [29] = experiment: Induction of apoptosis in human PC3 cells assessed as increase in cleaved caspase 9 levels at 2.5 uM after 24 hrs by Western blot analysis; type: functional, cell-based
PC-3 [30] = experiment: Induction of apoptosis in human PC3 cells assessed as increase in cleaved caspase 3 levels at 2.5 uM after 24 hrs by Western blot analysis; type: functional, cell-based
PC-3 [31] = experiment: Induction of apoptosis in human PC3 cells assessed as increase in survivin levels at 2.5 uM after 24 hrs by Western blot analysis; type: functional, cell-based
PC-3 [32] = experiment: Induction of apoptosis in human PC3 cells assessed as increase in cleaved PARP levels at 2.5 uM after 24 hrs by Western blot analysis; type: functional, cell-based
PC-3 [33] = experiment: Induction of apoptosis in human PC3 cells assessed as reduction in inactive pro-caspase-9 levels at 2.5 uM after 24 hrs by Western blot analysis; type: functional, cell-based
PC-3 [34] = experiment: Induction of apoptosis in human PC3 cells assessed as reduction in full length PARP protein levels at 2.5 uM after 24 hrs by Western blot analysis; type: functional, cell-based

SMILES: COc1cc(NC(=S)Nc2ccc(F)cc2)c2cc1Oc1ccc(cc1)C[C@H]1c3cc(c(OC)cc3CCN1C)Oc1c(OC)c(OC)cc3c1[C@H](C2)N(C)CC3 [listing 1 of 2 here]
- IC50 (HEL): 2.55 µM
- IC50 (K562): 1560 nM
- IC50 (MDA-MB-231): 2.03 µM
- IC50 (PC-3 [1]): 0.64 µM
- IC50 [2]: 2.6 µM
- Ratio IC50 (PC-3 [3]): 26
- Ratio IC50 (PC-3 [4]): 31
- viability at 3 µM (PC-3 [5]): 63.3%
- Activity (PC-3 [6]): 34.4%
- Activity (PC-3 [7]): 2.1%
- Activity (PC-3 [8]): 0.1%
- viability at 2 µM (PC-3 [9]): 83.3%
- Activity (PC-3 [10]): 13.6%
- Activity (PC-3 [11]): 2.8%
- Activity (PC-3 [12]): 0.4%
- viability at 1 µM (PC-3 [13]): 87.7%
- Activity (PC-3 [14]): 11.63%
- Activity (PC-3 [15]): 0.7%
- Activity (PC-3 [16]): 0.3%
- viability at 0.5 µM (PC-3 [17]): 93.3%
- Activity (PC-3 [18]): 5.3%
- Activity (PC-3 [19]): 0.9%
- Activity (PC-3 [20]): 0.5%

SMILES: COc1cc(NC(=S)Nc2ccc(F)cc2)c2cc1Oc1ccc(cc1)C[C@H]1c3cc(c(OC)cc3CCN1C)Oc1c(OC)c(OC)cc3c1[C@H](C2)N(C)CC3 [listing 2 of 2 here]
- Activity (PC-3 [21]): Active
- Activity (PC-3 [22]): Active
- Activity (PC-3 [23]): Active
- Activity (PC-3 [24]): Active
- Activity (PC-3 [25]): Active
- Activity (PC-3 [26]): Dose-dependent effect
- Activity (PC-3 [27]): Active
- Activity (PC-3 [28]): Active
- Activity (PC-3 [29]): Active
- Activity (PC-3 [30]): Active
- Activity (PC-3 [31]): Active
- Activity (PC-3 [32]): Active
- Activity (PC-3 [33]): Active
- Activity (PC-3 [34]): Active

SMILES: COc1cc(NC(=O)NCCc2ccccc2)c2cc1Oc1ccc(cc1)C[C@H]1c3cc(c(OC)cc3CCN1C)Oc1c(OC)c(OC)cc3c1[C@H](C2)N(C)CC3
- IC50 (HEL): 8.93 µM
- IC50 (K562): 4940 nM
- IC50 (MDA-MB-231): 9.76 µM
- IC50 (PC-3 [1]): 5.9 µM
- IC50 [2]: 7.68 µM

SMILES: COc1cc(NC(=O)Nc2ccc(Cl)c(C(F)(F)F)c2)c2cc1Oc1ccc(cc1)C[C@H]1c3cc(c(OC)cc3CCN1C)Oc1c(OC)c(OC)cc3c1[C@H](C2)N(C)CC3
- IC50 (HEL): 5.41 µM
- IC50 (K562): 2050 nM
- IC50 (MDA-MB-231): 10.1 µM
- IC50 (PC-3 [1]): 4.7 µM
- IC50 [2]: 3.1 µM

Reference: ChEMBL document CHEMBL4138174, “Design and synthesis of novel C14-urea-tetrandrine derivatives with potent anti-cancer activity” (Eur J Med Chem, 2018)
